Biological target: TNFα (Homo sapiens, UniProt P01375)
Experiment: TNF induced HEK-Blue assay (NF-kB-driven secreted alkaline phosphatase reporter)
Format: cell-based
Conditions: TNFα 0.5 ng/mL, HEK-Blue-CD40L cells, 18 h; read-out: TNF induced HEK-Blue assay IC50 value
Experimental: TNF or CD40L-Induced HEK-Blue Assay
Test compounds serially diluted in DMSO were plated in an assay plate (LABCYTE, Cat. # LP-0200) at final concentrations ranging from 0.004 μM to 25 μM. TNFα (final concentration 0.5 ng/mL) or CD40L (final concentration 30 ng/mL) in assay buffer [DMEM, 4.5 g/l glucose (Gibco, Cat. 21063-029), 10% FBS (Sigma, F4135), 1% Penicillin-Streptomycin (Gibco, Cat. 15140-122), 1% Anti-Anti (Gibco, Cat. 15240-112) and 2 mM L-glutamine (Gibco, Cat. 25030-081)] was then added to the assay plate. After a 30 minute pre-incubation at 37° C. and 5% CO2, HEK-Blue™-CD40L cells (INVIVOGEN, Cat. Code hkb-cd40) containing a NF-kB-driven secreted alkaline phosphatase reporter gene were seeded into the assay plate at a density of 20,000 cells per well. This plate was then incubated for 18 h at 37° C. and 5% CO2. Secreted alkaline phosphatase expression was measured using QUANTI-Blue™ (INVIVOGEN, Cat. Code rep-qb1) according to manufacturer's specifications and the assay plate was read on a PerkinElmer Envision at 620 nm.
Inhibition data for the test compound over a range of concentrations was plotted as percentage inhibition of the test compound (100%=maximum inhibition). IC50 values were determined after correcting for background [(sample read-mean of low control)/(mean of high control-mean of low control)] where by the low control is DMSO without stimulation and high control is DMSO with stimulation. The IC50 is defined as the concentration of test compound which produces 50% inhibition and was quantified using the 4 parameter logistic equation to fit the data.

TNFα, sequence (P01375 77-233 limits assumed): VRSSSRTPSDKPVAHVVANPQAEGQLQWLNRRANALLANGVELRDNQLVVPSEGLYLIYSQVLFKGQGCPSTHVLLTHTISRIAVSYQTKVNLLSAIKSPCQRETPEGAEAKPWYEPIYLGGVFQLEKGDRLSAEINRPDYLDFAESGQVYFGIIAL

| Compound | IC50 |
| --- | --- |
| CC(Nc1c(Cl)cnc2ccc(-c3cnc(C(C)(C)O)nc3)cc12)[C@H]1CCCN(C(=O)OC(C)(C)C)C1 (mixture of isomers) [Example 60, (S)-tert-butyl 3-(1-((3-chloro-6-(2-(2-hydroxypropan-2-yl)pyrimidin-5-yl)quinolin-4-yl)amino)ethyl)piperidine-1-carboxylate] | 1000 to 10000 nM |
| CC(Nc1c(Cl)cnc2ccc(-c3cnc(C(C)(C)O)nc3)cc12)[C@@H]1CCCN(C(=O)OC(C)(C)C)C1 (mixture of isomers) [Example 61, tert-butyl (R)-3-((R)-1-((3-chloro-6-(2-(2-hydroxypropan-2-yl)pyrimidin-5-yl)quinolin-4-yl)amino)ethyl)piperidine-1-carboxylate] | 1000 to 10000 nM |
| C[C@@H](Nc1c(Cl)cnc2ccc(-c3ccc(C(N)CC(=O)O)cc3)cc12)c1ccccc1F (mixture of isomers) [Example 115, 3-amino-3-(4-(3-chloro-4-(((R)-1-(2-fluorophenyl)ethyl)amino)quinolin-6-yl)phenyl)propanoic acid] | 1000 to 10000 nM |
| C[C@@H](Nc1c(Cl)cnc2ccc(-c3ccc(CC(N)C(=O)O)cc3)cc12)c1ccccc1F (mixture of isomers) [Example 116, 2-amino-3-(4-(3-chloro-4-(((R)-1-(2-fluorophenyl)ethyl)amino)quinolin-6-yl)phenyl)propanoic acid] | 1000 to 10000 nM |
| CC(C)(O)c1ncc(-c2cc3c(N[C@H]4C[C@@H]4c4ccccc4)c(Cl)cnc3cc2F)cn1 (mixture of isomers) [Example 271, 2-(5-(3-chloro-7-fluoro-4-(((1S,2R)-2-phenylcyclopropyl)amino)quinolin-6-yl)pyrimidin-2-yl)propan-2-ol] | 1000 to 10000 nM |
| C[C@@H](Nc1c(Cl)cnc2cc(F)c(-c3cnc(N4CCC(C(=O)O)C4)nc3)cc12)c1ccccc1F (mixture of isomers) [Example 282, 1-(5-(3-chloro-7-fluoro-4-(((R)-1-(2-fluorophenyl)ethyl)amino)quinolin-6-yl)pyrimidin-2-yl)pyrrolidine-3-carboxylic acid] | 1000 to 10000 nM |
| Cc1nc2ccc(-c3cnc(C(C)(C)O)nc3)cc2c(N[C@@H](c2cc(C(O)CO)ccc2F)C(F)F)c1Cl (mixture of isomers) [Example 402, 1-(3-((S)-1-((3-chloro-6-(2-(2-hydroxypropan-2-yl)pyrimidin-5-yl)-2-methylquinolin-4-yl)amino)-2,2-difluoroethyl)-4-fluorophenyl)ethane-1,2-diol] | < 1000 nM |
| Cc1nc2ccc(-c3cnc(C(C)(C)O)nc3)cc2c(N[C@H](C)c2cc(C(C)(O)CO)ccc2F)c1Cl (mixture of isomers) [Example 403, 2-(3-((R)-1-((3-chloro-6-(2-(2-hydroxypropan-2-yl)pyrimidin-5-yl)-2-methylquinolin-4-yl)amino)ethyl)-4-fluorophenyl)propane-1,2-diol] | < 1000 nM |
| Cc1nc2ccc(-c3cnc(C(C)(C)O)nc3)cc2c(N[C@H](C)c2cc(C(C)O)ccc2F)c1Cl (mixture of isomers) [Example 433, 2-(5-(3-chloro-4-(((1R)-1-(2-fluoro-5-(1-hydroxyethyl)phenyl)ethyl)amino)-2-methylquinolin-6-yl)pyrimidin-2-yl)propan-2-ol] | < 1000 nM |
| CC(Nc1c(Cl)cnc2cc(F)c(-c3ccc(C(O)CO)cc3)cc12)c1cc(C#N)ccc1F (mixture of isomers) [Example 599, 3-(1-((3-chloro-6-(4-(1,2-dihydroxyethyl)phenyl)-7-fluoroquinolin-4-yl)amino)ethyl)-4-fluorobenzonitrile] | < 1000 nM |
| CC(C)(O)c1ncc(-c2ccc3ncc(Cl)c(NC(CF)c4ccccc4F)c3c2)cn1 (racemic) [Example 10, 2-(5-(3-chloro-4-((2-fluoro-1-(2-fluorophenyl)ethyl)amino)quinolin-6-yl)pyrimidin-2-yl)propan-2-ol] | < 1000 nM |
| CN(C)CC(Nc1c(Cl)cnc2ccc(-c3cnc(C(C)(C)O)nc3)cc12)c1ccccc1F (racemic) [Example 12, 2-(5-(3-chloro-4-((2-(dimethylamino)-1-(2-fluorophenyl)ethyl)amino)quinolin-6-yl)pyrimidin-2-yl) propan-2-ol] | 1000 to 10000 nM |
| CC(Nc1c(Cl)cnc2c(Cl)cc(-c3cnc(N4CCNC(=O)C4)nc3)cc12)c1ccccc1F (racemic) [Example 18, 4-(5-(3,8-dichloro-4-((1-(2-fluorophenyl)ethyl)amino)quinolin-6-yl)pyrimidin-2-yl)piperazin-2-one] | 1000 to 10000 nM |
| CNc1ncc(-c2cc(Cl)c3ncc(Cl)c(NC(C)c4ccccc4F)c3c2)cn1 (racemic) [Example 19, 3,8-dichloro-N-(1-(2-fluorophenyl)ethyl)-6-(2-(methylamino)pyrimidin-5-yl)quinolin-4-amine] | 10000 to 25000 nM |
| CC(Nc1c(Cl)cnc2c(Cl)cc(-c3cnn(C)c3)cc12)c1ccccc1F (racemic) [Example 20, 3,8-dichloro-N-(1-(2-fluorophenyl)ethyl)-6-(1-methyl-1H-pyrazol-4-yl)quinolin-4-amine] | 10000 to 25000 nM |
| CC(Nc1c(Cl)cnc2c(Cl)cc(-c3ccc(C(C)(C)O)cc3)cc12)c1ccccc1F (racemic) [Example 21, 2-(4-(3,8-dichloro-4-((1-(2-fluorophenyl)ethyl)amino)quinolin-6-yl)phenyl)propan-2-ol] | 1000 to 10000 nM |
| CNS(=O)(=O)c1ccc(-c2cc(Cl)c3ncc(Cl)c(NC(C)c4ccccc4F)c3c2)cc1 (racemic) [Example 22, 4-(3,8-dichloro-4-((1-(2-fluorophenyl)ethyl)amino)quinolin-6-yl)-N-methylbenzenesulfonamide] | 10000 to 25000 nM |
| CCC(Nc1c(Cl)cnc2ccc(-c3cnc(N4CCNC(=O)C4)nc3)cc12)c1nc(C(N)=O)ccc1F (racemic) [Example 23, 6-(1-((3-chloro-6-(2-(3-oxopiperazin-1-yl)pyrimidin-5-yl)quinolin-4-yl)amino)propyl)-5-fluoropicolinamide] | < 1000 nM |

The next lines start with the values.

| IC50 | Compound |
| --- | --- |
| < 1000 nM | O=C(O)CC1CN(c2ncc(-c3ccc4ncc(Cl)c(N[C@@H](c5ccccc5F)C(F)F)c4c3)cn2)CCN1 (mixture of isomers) [Example 77, 2-(4-(5-(3-chloro-4-(((S)-2,2-difluoro-1-(2-fluorophenyl)ethyl)amino)quinolin-6-yl)pyrimidin-2-yl)piperazin-2-yl) acetic acid] |
| < 1000 nM | C[C@@H](Nc1c(Cl)cnc2ccc(-c3cnc(N4CCN(C5CCNC5=O)CC4)nc3)cc12)c1ccccc1F (mixture of isomers) [Example 112, 3-(4-(5-(3-chloro-4-(((R)-1-(2-fluorophenyl)ethyl)amino)quinolin-6-yl)pyrimidin-2-yl)piperazin-1-yl)pyrrolidin-2-one] |
| < 1000 nM | C[C@@H](Nc1c(Cl)cnc2ccc(-c3ccc(C4(N)CC(O)C4)cc3)cc12)c1ccccc1F (mixture of isomers) [Example 119, (R)-3-amino-3-(4-(3-chloro-4-((1-(2-fluorophenyl)ethyl)amino)quinolin-6-yl)phenyl)cyclobutan-1-ol] |
| < 1000 nM | COC(=O)C1CCN(c2ncc(-c3cc4c(N[C@H](C)c5ccccc5F)c(Cl)cnc4cc3F)cn2)C1 (mixture of isomers) [Example 281, methyl 1-(5-(3-chloro-7-fluoro-4-(((R)-1-(2-fluorophenyl)ethyl)amino)quinolin-6-yl)pyrimidin-2-yl)pyrrolidine-3-carboxylate] |
| < 1000 nM | C[C@@H](Nc1c(Cl)cnc2cc(F)c(-c3cnc(N4CCC(C(C)(C)O)C4)nc3)cc12)c1ccccc1F (mixture of isomers) [Example 283, 2-(1-(5-(3-chloro-7-fluoro-4-(((R)-1-(2-fluorophenyl)ethyl)amino)quinolin-6-yl)pyrimidin-2-yl)pyrrolidin-3-yl)propan-2-ol] |
| < 1000 nM | Cc1nc2ccc(-c3cnc(C(C)(C)O)nc3)cc2c(N[C@H](C)c2cc(C(O)CO)ccc2F)c1Cl (mixture of isomers) [Example 397, 1-(3-((R)-1-((3-chloro-6-(2-(2-hydroxypropan-2-yl)pyrimidin-5-yl)-2-methylquinolin-4-yl)amino)ethyl)-4-fluorophenyl)ethane-1,2-diol] |
| < 1000 nM | C[C@@H](Nc1c(Cl)cnc2ccc(-c3cnc(C(C)(C)O)nc3)cc12)c1cc(C(O)CO)ccc1F (mixture of isomers) [Example 398, 1-(3-((R)-1-((3-chloro-6-(2-(2-hydroxypropan-2-yl)pyrimidin-5-yl)quinolin-4-yl)amino)ethyl)-4-fluorophenyl)ethane-1,2-diol] |
| < 1000 nM | C[C@@H](Nc1c(Cl)cnc2ccc(-c3cnc(C(C)(C)O)nc3)cc12)c1cc(CC(O)CO)ccc1F (mixture of isomers) [Example 399, 3-(3-((R)-1-((3-chloro-6-(2-(2-hydroxypropan-2-yl)pyrimidin-5-yl)quinolin-4-yl)amino)ethyl)-4-fluorophenyl)propane-1,2-diol] |

Reference: US10865191B2, “Heterocyclic compounds useful as modulators of TNF alpha” (BRISTOL-MYERS SQUIBB COMPANY, priority 2015, dated 2020)
